Experimental data: EP0484596A1, “Organotin compounds and anti-tumor compositions containing them” (priority 1990, dated 1992)

How the values were obtained:
MCF-7 mammary carcinoma = assay: in vitro cell growth inhibition, PIT method, MCF-7; type: cell-based, human; settings: amount which inhibits 50% of the cell growth
Description: (§1) The compounds (1), (2) and (3) as well as their starting compounds, i.e. (4), (5) and (6) respectively, [drawing 8] were tested in vitro against the following human tumor cell lines • MCF-7 mammary carcinoma • WiDr colon tumor cells
(§2) The tests were carried out according to the method of R. van Lambalgen and P. Lelieveld, The PIT Method: an automated in vitro technique for drug toxicity testing. Invest. New Drug 5, 161-165 (1987).
(§3) The ID50 values in ng/ml for the above compounds were determined, i.e. the amount which inhibits 50% of the cell growth.

WiDr colon tumor cells = assay: in vitro cell growth inhibition, PIT method, WiDr; type: cell-based, human; settings: amount which inhibits 50% of the cell growth
Description: as §1, §2, §3

**Q.** How did the ID50 (MCF-7 mammary carcinoma) turn out when `N.N.[Cl][Pt][Cl]` [Cis-platin] was run?
**A.** Its ID50 is 0.85 µg/mL.

**Q.** And the ID50 (WiDr colon tumor cells)?
**A.** The ID50 was 0.624 µg/mL.
